Measurements published in patent US20090111895A1, “ENHANCED DIALDEHYDE DISINFECTANT AND STERILIZATION FORMULATIONS” (Ethicon, Inc., priority 2007, published 2009).

Experiments:
[1] = test system: Bacillus subtilis (ATCC 19659) spores; test: Bacillus subtilis sporicidal suspension test; type: cell-based; conditions: 20° C.; for sporicidal activity (in words): Table 1 results; for sporicidal activity (in words) / enhancement of the sporicidal activity of ortho-phthalaldehyde (in words): 5 hours; for enhancement of the sporicidal activity of ortho-phthalaldehyde (in words): Tables 2-4, 0.3 wt. % ortho-phthalaldehyde
Protocol: The phrase “Bacillus subtilis sporicidal suspension test”, when used in the appended claims means a determination of the sporicidal activity of a dialdehyde calculated as a log reduction of Bacillus subtilis bacterial spores. The test is performed according to Example 1 by treatment of Bacillus subtilis bacterial spores with a formulation consisting of the dialdehyde to be tested in water. The log10 reduction/mL is calculated from log N0−log Ni where N0 represent the number of organisms (cfu/mL) at time zero; and Ni represent the number of surviving organism (cfu/mL) at designated exposure time.
Several ortho-phthalaldehyde based germicidal solutions were tested to determine their effectiveness in killing Bacillus subtilis (ATCC 19659) spores using the Bacillus subtilis sporicidal suspension test.
For preparation of the inoculating spore test suspension, a 1 ml aliquot of the spore harvest was serial diluted with sterile water to produce a spore suspension of approximately 1×10^7 cfu ml.
Test solutions of ortho-phthalaldehyde/acetate were prepared by mixing acetate with CIDEX® OPA (which is a 0.55% solution of ortho-phthalaldehyde in water around pH 7.3, commercially available from Advanced Sterilization Products, a Johnson & Johnson Company) and diluted to levels indicated in Table 1.
The 1 ml aliquots of spore suspensions were exposed to 9 ml of ortho-phthalaldehyde solution at 20° C. The pHs of the tested solutions were adjusted to 7.3-7.5.
The experiments were performed using the suspension test, which involved adding 1 ml of 10^7 spores to sterile test tubes containing 9 ml of the challenge solution. The resulting test sample spore concentration was 10^6 cfu /ml. The tubes containing the test suspension/spores were vortex briefly to allow for mixing of the solution/spores. At the end of each of the appropriate exposure time at 20° C., 1 ml aliquots of the solution/spores mixture were aseptically transferred to sterile filtration units containing 0.45μ membrane filters with 100 ml of neutralizer solution (1% w/v glycine solution). The solutions were filtered and the membrane filters were rinsed again with 100 ml of neutralizers solution. The membrane filters were then individually transferred onto the surface of commercially available sterile Tryptic Soy Agar plates. The plates were incubated at 37° C. for 48 hours. After incubation, the number of survivors were determined for each test sample/exposure time.
The log10 reduction/mL is calculated from log N0−log Ni where N0 represent the number of organism (cfu/mL) at time zero; and Ni represent the number of surviving organism (cfu/mL) at designated exposure time.
In addition to acetate, several mixtures of ortho-phthalaldehyde with different carboxylates such as chloroacetate and propionate were also tested using the protocol described above in Example 1.
Benzoate was evaluated for its ability to enhance the sporicidal activity of ortho-phthalaldehyde using the protocol described above in Example 1. The pHs of all solutions were adjusted to neutral, 7.3-7.5.
Spore suspension tests with five germicide solutions containing 2.4% glutaraldehyde with various amounts of acetate ranging from 0 to 7% were conducted at 20° C. for 4 hours with Bacillus using the protocol described above in Example 1. The pHs of the solutions were adjusted to 8.2-8.9, which is the typical pH range for glutaraldehyde disinfecting solutions.

Bacillus subtilis spores = test: Time kill assay; type: cell-based; conditions: Table 6; 0.3% ortho-phthalaldehyde, 20° C.
Protocol: Test solutions were prepared by mixing acetate with ortho-phthalaldehyde (if applicable) and the solutions were adjusted to pH 7.2. The solutions were then challenged with 10^6 per ml of Bacillus subtilis spores at 20° C. (room temperature). At each predetermined exposure time, samples from each of the test solutions were tested/assayed for survivors.

spores of B. subtilis = conditions: cited from earlier work

Row | SMILES | sporicidal activity (in words) [1] | enhancement of the sporicidal activity of ortho-phthalaldehyde (in words) [1] | further results
1 | CC(=O)[O-].[K+] [acetate, potassium acetate] | does not have significant sporicidal activity |  | enhancement of the sporicidal activity of glutaraldehyde (in words) ([1]; Table 5, 2.4% glutaraldehyde, 4 hours): the sporicidal activity of glutaraldehyde is significantly enhanced; enhancement of the sporicidal activity of ortho-phthalaldehyde (in words) (Bacillus subtilis spores): the sporicidal activity of ortho-phthalaldehyde is significantly enhanced
2 | O=C(O)CCl [chloroacetate] |  | significantly enhance the sporicidal activity of ortho-phthalaldehyde | 
3 | O=C(O)c1ccccc1 [benzoate] |  | enhances ortho-phthalaldehyde sporicidal efficacy when the benzoate concentration is above about 3% | 
4 | O=Cc1ccccc1C=O [ortho-phthalaldehyde, reference compound] | does not have significant sporicidal activity |  | activity against spores of B. subtilis (in words) (spores of B. subtilis): relatively ineffective against spores of B. subtilis
5 | CCC(=O)O [propionate] |  | significantly enhance the sporicidal activity of ortho-phthalaldehyde | 
